Experimental data from the supplement of paper PMC10307832.

Tests used:
Test in all cases: relative viability (nuclei count vs DMSO), 5 days (fraction); higher = more cells survive
[1] = compound: CO[C@H]1C[C@@H]2CC[C@@H](C)[C@@](O)(O2)C(=O)C(=O)N2CCCC[C@H]2C(=O)O[C@H]([C@H](C)C[C@@H]2CC[C@@H](OCCO)[C@H](OC)C2)CC(=O)[C@H](C)/C=C(\C)[C@@H](O)[C@@H](OC)C(=O)[C@H](C)C[C@H](C)/C=C/C=C/C=C/1C [Everolimus]
Procedure, shortened: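 In 1536-well plates, lung cancer cell lines rested overnight at 37 °C before five library-drug doses (not always all listed), √10 apart, were pinned onto vehicle-anchored plates. Nuclei were counted with MetaXpress from 4× Hoechst images taken after 5 days without medium change. Viability compares treated-well with vehicle-well nuclei as a median over plates, and plates needed control CV below 25% plus at least one doubling to pass.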

[2] = compound: CO[C@H]1C[C@@H]2CC[C@@H](C)[C@@](O)(O2)C(=O)C(=O)N2CCCC[C@H]2C(=O)O[C@H]([C@H](C)C[C@@H]2CC[C@@H](OCCO)[C@H](OC)C2)CC(=O)[C@H](C)/C=C(\C)[C@@H](O)[C@@H](OC)C(=O)[C@H](C)C[C@H](C)/C=C/C=C/C=C/1C [Everolimus] + CCNC(=O)c1noc(-c2cc(C(C)C)c(O)cc2O)c1-c1ccc(CN2CCOCC2)cc1 [Luminespib] (partner 0.01 µM)
Procedure, shortened: (§1)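 Cells from lung cancer lines were seeded into 1536-well plates and, one day later, dosed by pin tool. Treatments were either a single drug or a fixed dose of an anchor drug with five library-drug doses (not always all listed) in √10 steps. After 5 days, nuclei were stained in a one-step fixation (final 0.05% Triton X-100, 1% formaldehyde, 1 ug/ml Hoechst) and counted on 4× images, and relative viability is the treated-to-vehicle nuclei ratio, as the median of duplicate plates.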

[3] = compound: CO[C@H]1C[C@@H]2CC[C@@H](C)[C@@](O)(O2)C(=O)C(=O)N2CCCC[C@H]2C(=O)O[C@H]([C@H](C)C[C@@H]2CC[C@@H](OCCO)[C@H](OC)C2)CC(=O)[C@H](C)/C=C(\C)[C@@H](O)[C@@H](OC)C(=O)[C@H](C)C[C@H](C)/C=C/C=C/C=C/1C [Everolimus] + COc1cc2c(Oc3ccc(NC(=O)C4(C(=O)Nc5ccc(F)cc5)CC4)cc3F)ccnc2cc1OCCCN1CCOCC1 [Foretinib] (partner 0.25 µM)
Procedure, shortened: as §1

[4] = compound: CO[C@H]1C[C@@H]2CC[C@@H](C)[C@@](O)(O2)C(=O)C(=O)N2CCCC[C@H]2C(=O)O[C@H]([C@H](C)C[C@@H]2CC[C@@H](OCCO)[C@H](OC)C2)CC(=O)[C@H](C)/C=C(\C)[C@@H](O)[C@@H](OC)C(=O)[C@H](C)C[C@H](C)/C=C/C=C/C=C/1C [Everolimus] + COc1cccc2cc(-c3nc([C@H]4CC[C@H](C(=O)O)CC4)n4ncnc(N)c34)[nH]c12 [OSI-027] (partner 0.5 µM)
Procedure, shortened: as §1

[5] = compound: CO[C@H]1C[C@@H]2CC[C@@H](C)[C@@](O)(O2)C(=O)C(=O)N2CCCC[C@H]2C(=O)O[C@H]([C@H](C)C[C@@H]2CC[C@@H](OCCO)[C@H](OC)C2)CC(=O)[C@H](C)/C=C(\C)[C@@H](O)[C@@H](OC)C(=O)[C@H](C)C[C@H](C)/C=C/C=C/C=C/1C [Everolimus] + Cc1cc(Nc2cc(N3CCN(C)CC3)nc(Sc3ccc(NC(=O)C4CC4)cc3)n2)n[nH]1 [Tozasertib] (partner 0.1 µM)
Procedure, shortened: as §1

[6] = compound: CO[C@H]1C[C@@H]2CC[C@@H](C)[C@@](O)(O2)C(=O)C(=O)N2CCCC[C@H]2C(=O)O[C@H]([C@H](C)C[C@@H]2CC[C@@H](OCCO)[C@H](OC)C2)CC(=O)[C@H](C)/C=C(\C)[C@@H](O)[C@@H](OC)C(=O)[C@H](C)C[C@H](C)/C=C/C=C/C=C/1C [Everolimus] + Cc1nc(Nc2ncc(C(=O)Nc3c(C)cccc3Cl)s2)cc(N2CCN(CCO)CC2)n1 [Dasatinib] (partner 0.075 µM)
Procedure, shortened: as §1

[7] = compound: CO[C@H]1C[C@@H]2CC[C@@H](C)[C@@](O)(O2)C(=O)C(=O)N2CCCC[C@H]2C(=O)O[C@H]([C@H](C)C[C@@H]2CC[C@@H](OCCO)[C@H](OC)C2)CC(=O)[C@H](C)/C=C(\C)[C@@H](O)[C@@H](OC)C(=O)[C@H](C)C[C@H](C)/C=C/C=C/C=C/1C [Everolimus] + N=C(N)NC(=N)NCCc1ccccc1 [Phenformin] (partner 250 µM)
Procedure, shortened: as §1

Question: How did the relative viability ([1]; 0.01 µM) turn out when NCI-H1623 was run?
Answer: 0.773

Question: And the relative viability ([1]; 0.03162 µM)?
Answer: 0.622

Question: And the relative viability ([1]; 0.1 µM)?
Answer: 0.595

Question: And the relative viability ([1]; 0.3162 µM)?
Answer: 0.581

Question: What about the relative viability ([1]; 1 µM) of the same cell line?
Answer: 0.514

Question: And the relative viability ([2]; first compound 0.01 µM)?
Answer: 0.467

Question: What about the relative viability ([2]; first compound 0.03162 µM) of the same cell line?
Answer: 0.336

Question: What about the relative viability ([2]; first compound 0.1 µM) of the same cell line?
Answer: 0.307

Question: What about the relative viability ([2]; first compound 0.3162 µM) of the same cell line?
Answer: 0.326

Question: And the relative viability ([2]; first compound 1 µM)?
Answer: 0.296

Question: What about the relative viability ([3]; first compound 0.01 µM) of the same cell line?
Answer: 0.721

Question: What about the relative viability ([3]; first compound 0.03162 µM) of the same cell line?
Answer: 0.831

Question: And the relative viability ([3]; first compound 0.1 µM)?
Answer: 0.53

Question: And the relative viability ([3]; first compound 0.3162 µM)?
Answer: 0.511

Question: And the relative viability ([3]; first compound 1 µM)?
Answer: 0.563

Question: And the relative viability ([4]; first compound 0.01 µM)?
Answer: 0.408

Question: And the relative viability ([4]; first compound 0.03162 µM)?
Answer: 0.395

Question: And the relative viability ([4]; first compound 0.1 µM)?
Answer: 0.362

Question: And the relative viability ([4]; first compound 0.3162 µM)?
Answer: 0.384

Question: And the relative viability ([4]; first compound 1 µM)?
Answer: 0.372

Question: And the relative viability ([5]; first compound 0.01 µM)?
Answer: 0.411

Question: And the relative viability ([5]; first compound 0.03162 µM)?
Answer: 0.396

Question: What about the relative viability ([5]; first compound 0.1 µM) of the same cell line?
Answer: 0.39

Question: What about the relative viability ([5]; first compound 0.3162 µM) of the same cell line?
Answer: 0.381

Question: What about the relative viability ([5]; first compound 1 µM) of the same cell line?
Answer: 0.385

Question: And the relative viability ([6]; first compound 0.01 µM)?
Answer: 0.388

Question: What about the relative viability ([6]; first compound 0.03162 µM) of the same cell line?
Answer: 0.566

Question: And the relative viability ([6]; first compound 0.1 µM)?
Answer: 0.317

Question: What about the relative viability ([6]; first compound 0.3162 µM) of the same cell line?
Answer: 0.352

Question: What about the relative viability ([6]; first compound 1 µM) of the same cell line?
Answer: 0.382

Question: What about the relative viability ([7]; first compound 0.01 µM) of the same cell line?
Answer: 0.466

Question: What about the relative viability ([7]; first compound 0.03162 µM) of the same cell line?
Answer: 0.622

Question: What about the relative viability ([7]; first compound 0.1 µM) of the same cell line?
Answer: 0.444

Question: What about the relative viability ([7]; first compound 0.3162 µM) of the same cell line?
Answer: 0.444

Question: And the relative viability ([7]; first compound 1 µM)?
Answer: 0.512
